The test system of one data set is HL60 cells. Nature of the data set: viability assay (propidium iodide, flow cytometry), HL60 cells. As to conditions: for CC50: Homo sapiens, HL-60, 48 h. The procedure:
(§1) Jurkat T-lymphocyte-like, pro-myelocytic HL60 and erythroleukemic K562 cell lines were obtained from the American Type Culture Collection (ATCC, Rockville, Md., USA). The B9 Jurkat cell clone that overexpresses Bcl-2 was previously generated and characterised (Thomson et al (2005)). Jurkat and HL60 cells were grown in culture using RPMI 1640 media supplemented with 10% FBS, 100 units/mL penicillin and 100 μg/mL streptomycin at 37° C. in a humidified atmosphere with 5% CO2. K562 cells were grown in culture using Iscoves DMEM media supplemented with 10% FBS, 100 units/mL penicillin and 100 μg/mL streptomycin at 37° C. in a humidified atmosphere with 5% CO2.
(§2) All cells were treated at 1×10^6 per mL in media. Fresh stock solutions of ABT-737 were prepared in sterile DMSO and stored at −20° C. Stock solutions of 50 mM were then further diluted with DMSO and added to cells, maintaining the final concentration of DMSO constant at 0.1%. Jurkat and K562 cells were treated with 200 nM ABT-737, HL60 cells were treated with 50 nM ABT-737. Stocks of the compound I, pinnatoxin F and pinnatoxin G (1000×) were prepared in sterile DMSO and stored at −20° C. Concentrations were calculated using molecular weights of 401 (the compound I), 764 (pinnatoxin F) and 693 (pinnatoxin G). The final concentration of DMSO was kept constant at 0.1%.
(§3) Integrity of cell plasma membranes was assessed using propidium iodide (PI) staining at 48 hours. Cells (0.2×10^6) were loaded with 1 μg of propidium iodide (1 μL of a 1 mg/mL stock in water per 200 μL of cells). PI uptake by non-viable (stained, PI positive) cells was measured using the FC500 MPL Flow Cytometry system (Beckman Coulter Inc.). Viable cells were defined as PI-negative cells expressed as a percentage of the 10,000 cells analysed.
For orientation: Flow cytometry measures light scatter and fluorescence of single cells or particles in a stream.

For a further data set, the system named is Jurkat cells. Nature of the data set: phosphatidylserine assay (Annexin V-FITC / propidium iodide), Jurkat cells. In kind it is cell-based, human. The procedure: Phosphatidylserine (PS) becomes exposed on the outer leaflet of the plasma membrane during apoptosis. PS binds strongly with Annexin-V, which when labelled with a fluorescent probe such as fluorescein isothiocyanate (FITC), allows the detection of cells undergoing apoptosis. Treated cells (0.1×10^6) were harvested and centrifuged at 10,000×g for 1 minute. The supernatant was removed and cells were resuspended in 100 μL Annexin-V Binding Buffer (10 mM HEPES pH 7.4, 140 mM NaCl, 2.5 mM CaCl2). Cells were stained by adding 1 μL Annexin-V FITC conjugate, and then incubated in the dark at room temperature for 15 minutes. […] Viable cells (PI negative) that stained with Annexin-V FITC were termed PS positive.

In a further data set the test system is K562 cells. Nature of the data set: viability assay (propidium iodide, flow cytometry), K562 cells. The protocol:
as §1
All cells were treated at 1×10^6 per mL in media. Fresh stock solutions of ABT-737 were prepared in sterile DMSO and stored at −20° C. Stock solutions of 50 mM were then further diluted with DMSO and added to cells, maintaining the final concentration of DMSO constant at 0.1%. […] Concentrations were calculated using molecular weights of 401 (the compound I), 764 (pinnatoxin F) and 693 (pinnatoxin G). […]
Integrity of cell plasma membranes was assessed using propidium iodide (PI) staining at 48 hours. […] PI uptake by non-viable (stained, PI positive) cells was measured using the FC500 MPL Flow Cytometry system (Beckman Coulter Inc.). Viable cells were defined as PI-negative cells expressed as a percentage of the 10,000 cells analysed.

Data set [1] deals with Bcl-2 overexpressing Jurkat cells (B9 clone). Nature of the data set: cells. The protocol: as §1, §2, §3
For data set [2], the system named is Caspase-3-like DEVDase activity in Bcl-2 overexpressing Jurkat cells. The experiment in a line: caspase assay (DEVD-AMC), Bcl-2 overexpressing Jurkat cells. In kind it is cell-based, human. The protocol:
(§4) Six hours after treatment 1×10^6 cells were harvested and stored as cell pellets at −80° C. Cell pellets were resuspended in 15 μL PBS, transferred to a 96-well fluorescent plate, and 95 μL buffer (100 mM HEPES, 10% sucrose, 5 mM DTT, 0.1% NP-40 and 0.1% CHAPS at pH 7.25) containing 50 μM DEVD-AMC. The rate of release of fluorescent AMC was monitored at 37° C. (λex 390 nm, λem 460 nm). Data are expressed as a fold increase in activity over vehicle-treated cells incubated for the same time.

A further data set concerns caspase-3 in P388 cells. Nature of the data set: activation of caspase-3 in P388 cells. In kind it is cell-based. To be noted: after 12 hours of exposure. The protocol: (§5) No effects were recorded at 500 or 700 μg/kg. […] Furthermore, the onset of symptoms of toxicity was much slower with the compound I than with other cyclic imines. Structure-activity relationships among cyclic imines, both in terms of acute toxicity and effects on neuromuscular transmission, point to the importance of the imine moiety in the mode of action (Munday (2008)). […] This toxicity profile prompted further investigations into the use of the compound I as an anticancer therapeutic or synergist for Bcl-2 antagonists such as the compound designated ABT-737: […]

Data set [3] can be described thus: acute toxicity in mice by intraperitoneal injection. In kind it is in vivo. To be noted: mouse, in vivo, ip, intraperitoneal injection. The protocol: as §5
Data set [4] concerns mice. The description is as above. In kind it is in vivo. The protocol:
as §5

Data set [5] has as its system Caspase-3-like DEVDase activity in wild-type Jurkat cells. The experiment in a line: caspase assay (DEVD-AMC), wild-type Jurkat cells. In kind it is cell-based, human. The procedure:
as §4

For another data set, the system named is P388 cells. Nature of the data set: in vitro dose-response (toxicity) against P388 cells. In kind it is cell-based. The procedure: (§6) FIG. 2. Dose response curves for the compound I designated portimine against P388 (▴) and Vero (▪) cells over 72 hours exposure.
as §5

In the next data set the test system is Jurkat T-lymphoma cells. Nature of the data set: viability assay (propidium iodide, flow cytometry), Jurkat cells. As to conditions: for CC50: Homo sapiens, Jurkat, 48 h; for cytotoxicity: Jurkat cells, 48 hours, over the concentration range tested. The procedure: as §1, §2, §3
A further data set relates to Vero cells. Nature of the data set: in vitro dose-response (toxicity) against Vero cells. In kind it is cell-based. The protocol: as §6, §5
For data set [6], the system named is mice. To be noted: cited from earlier work; for LD50 reported for other cyclic imines: intraperitoneal injection.

Read-outs that look alike come from different tables or passages of the source.

A word on the LD50: it is the dose expected to kill half of the subjects tested. Broadly, the EC50 is the concentration needed to bring the measured effect to its halfway point. `C=CC1=C[C@@H]2[C@@H]3O[C@]4(CC[C@H](O4)[C@@H](C)C[C@@H](O)C3=O)C[C@H](O)C3=NCC[C@@]32CC1` (relative stereo) [compound I, (4R,6S,9R,10R,12S,14R,14aR,18aS)-rel-16-ethenyl-1,2,4,5,7,8,9,10,11,12, 14,14a,17,18-tetradecahydro-4,12-dihydroxy-10-methyl-)13H-6,9:6,14-diepoxybenzo[2,3]cyclotetradeca[1,2-b]pyrrol-13-one]: the CC50 with HL60 cells (read-out: LC50, HL60 cells, 48 h, with 50 nM ABT-737) stood at 0.8 nM; in the data set on HL60 cells (read-out: LC50, HL60 cells, 48 h, without ABT-737) it was 34 nM; in the data set with K562 cells (Homo sapiens, K562, 48 h, read-out: LC50), 6.7 nM; in [1] (Homo sapiens, Jurkat, 48 h, read-out: LC50), 2.4 nM; in the data set with Jurkat T-lymphoma cells (read-out: LC50, Jurkat cells, 48 hours, without ABT-737) it was 6 nM; in the data set with Jurkat T-lymphoma cells (read-out: LC50, wild-type Jurkat cells, 48 hours, with 200 nM ABT-737), 1.4 nM. Moreover, the “time at which annexin V positive cells are evident” value with Jurkat cells (50 nM portimine) was found to be 2 h. The “cells annexin V positive” value with Jurkat cells (6 hours) was “up to 50%”. Besides, the necrosis entry in the data set with Jurkat cells (annexin V / propidium iodide staining) is listed as “no indication of significant necrosis”. In addition, in the data set on K562 cells (K562 cells, 48 h, without ABT-737), the “sensitivity of K562 cells” value is “relatively resistant”. Besides, in data set [1] (Jurkat cells overexpressing Bcl-2, 48 hours, without ABT-737, up to highest concentrations tested), the cell death entry was “unable to trigger cell death”. Further, in data set [2] (50 nM portimine in combination with 200 nM ABT-737), the “increase in caspase activity” value is on record as 60 fold. Further, the caspase activity result in data set [2] (any concentration, 6 hours) is “no caspase activity”. Moreover, the “activation of caspase-3” value with caspase-3 in P388 cells is given as “observed”. The LD50 in data set [3] was 1.57 mg/kg. For the same compound, in the data set with mice [4] (compared with other cyclic imines), the “onset of symptoms of toxicity” value is recorded as “much slower”. In the data set with mice [4] (intraperitoneal injection, 500 or 700 μg/kg), the “effects recorded at sublethal doses” value is given as “No effects”. Besides, the “caspase activity time course” value in [5] (Jurkat cells, 50 nM portimine) is recorded as “steady increase in caspase activity over the 5 hours”. In data set [5] (wild-type Jurkat cells, increasing concentrations, 6 hours), the caspase activation entry is on record as “dose-dependent increase”. The EC50 in the data set on P388 cells (Mus musculus, P388 cells, 72 hours exposure) turned out to be 2.7 nM; with Vero cells (Chlorocebus sabaeus, 72 hours exposure) it was 3 nM. For the same compound, the cells killed was > 90% in the data set on P388 cells (P388 cells, 10 nM, 72 hours of exposure) and > 90% in the data set on Vero cells (10 nM, 72 hours of exposure).

On to `CN(C)CC[C@H](CSc1ccccc1)Nc1ccc(S(=O)(=O)NC(=O)c2ccc(N3CCN(Cc4ccccc4-c4ccc(Cl)cc4)CC3)cc2)cc1[N+](=O)[O-]` [ABT-737, 4-[4-[(4′-chloro[1,1′-biphenyl]-2-yl)methyl]-1-piperazinyl]-N-[[4-[[(1R)-3-(dimethylamino)-1-[(phenylthio)methyl]propyl]amino]-3-nitrophenyl]sulfonyl]-benzamide, reference compound], for which, in the data set with HL60 cells (HL60 cells, ABT-737 alone), the “sensitivity of HL60 cells” value is recorded as “particularly sensitive”. The direct cytotoxicity result in [1] is given as “not directly cytotoxic”.

As to `C=C1CCCC2=NCC(C)C(C)CC23CCC(C2C=C(C)C(=O)O2)=C(C)C3/C=C(/C)C(O)CC2CCC3(CCC4(OC(CCC4(C)O)C1)O3)O2` (centres unmarked) [desmethyl spirolide C], in the data set with mice [6], the “LD50 reported for other cyclic imines” value was 6.9 µg/kg.

For `CC1=C[C@@H](C2=C(C)[C@@H]3/C=C(\C)[C@@H](O)CC[C@@H]4C[C@@H](C)[C@@H](O4)/C(C)=C/CCC4=NCCC[C@@]43CC2)OC1=O` [gymnodimine], the “LD50 reported for other cyclic imines” value in the data set with mice [6] is 96 µg/kg.

On to `C=C1CCCC2=NC[C@H](C)[C@@H](C)C[C@@]23CCC([C@@H]2CCC(=O)O2)=C[C@@H]3[C@@H]2O[C@@]3(C[C@@H](C)C[C@H]2O3)C[C@@H]2O[C@]3(CC[C@@]4(O[C@@H](CC[C@@]4(C)O)C1)O3)C[C@H](C)[C@@H]2O` [pinnatoxin F, reference compound], for which the EC50 in the data set on P388 cells (P388 cells in vitro) was > 1000 nM. Besides, in the data set on mice [6], the “LD50 reported for other cyclic imines” value is 16 µg/kg. Moreover, the cytotoxicity result in the data set on Jurkat T-lymphoma cells was “little cytotoxicity”.

`C=CC1=C[C@@H]2[C@@H]3O[C@]4(C[C@H]5CCC[C@@]6(CC[C@@]7(O[C@@H](CC[C@@]7(C)O)CC(=C)CCCC7=NC[C@H](C)[C@@H](C)C[C@@]72CC1)O6)O5)C[C@@H](C)[C@@H](O)[C@H]3O4` [pinnatoxin G, reference compound]: the cytotoxicity entry with Jurkat T-lymphoma cells is “little cytotoxicity”.

For the compound `C=C1CCCC2=NC[C@H](C)[C@@H](C)C[C@@]23CCC([C@@H]2C=C(C)C(=O)O2)=C(C)[C@@H]3/C=C(\C)[C@@H](O)C[C@H]2O[C@@]3(C[C@H]2C)O[C@@H](CC[C@@]3(C)O)C1` [spirolide H], the “toxicity to mice relative to the compound I” value in the data set with mice [6] (Roach et al (2009)) was “even less toxic to mice than the compound I”.

The values above are taken from patent publication US10981927B2, “Bioactive compounds” (priority 2014, dated 2021).
